# Legend:
# [1] = system: HUVECs; test: Peroxynitrite (ONOO-) release from HUVECs measured with porphyrinic nanosensor; assay type: cell-based, human; details: 10 μM 2 hours, then IL-6 12 ng/ml 24 h; for ONOO- Release: calcium ionophore, mean ± SEM, N = 4-5
# Text: FIG. 5 is a schematic illustration of the ONOO— assay. The nanosensor is used to quantitate endothelial NO and ONOO— release in real time and is made by depositing a sensing material on the tip of carbon fiber with a diameter of only 0.5 μm. The fiber is sealed with nonconductive epoxy and electrically connected to wires (gold, copper) with conductive silver epoxy. Conductive films of polymeric Ni(II) tetrakis (3-methoxy-4-hydroxyphenyl) porphyrin and Mn(III) paracyclophanylporphyrin were used for the NO and ONOO— sensors, respectively.
# Release of ONOO— from HUVECs was measured as previously described. Briefly, in parallel with the cellular preparations for proteomic analysis, HUVECs were stimulated with calcium ionophore and ONOO— was measured using a porphyrinic nanosensor (FIG. 5).
# [2] = system: HUVECs; test: NO release from HUVECs measured with tandem porphyrinic nanosensors; assay type: cell-based, human; details: for NO Release: then IL-6 12 ng/ml 24 h, calcium ionophore, mean ± SEM, N = 4-5
# Experimental: Human pulmonary ECs (PECs) and umbilical vein ECs (HUVECs) were treated with vehicle or EPA (40/10 μM in PECs/HUVECs) and IL-6 (12 ng/ml) for 24 hours. Proteomic analysis was performed using liquid chromatography/mass spectroscopy. […] NO release was measured in HUVECs using tandem porphyrinic nanosensors following stimulation with calcium.
# NO release from HUVECs was measured as previously described. Briefly, in parallel with the cellular preparations for proteomic analysis, HUVECs were stimulated with calcium ionophore and NO was measured using tandem porphyrinic nanosensors.
# [3] = system: Platelet endothelial cell adhesion molecule 1 (PECAM-1); test: PECAM-1 expression relative to IL-6 in HUVECs (LC/MS proteomics); assay type: cell-based, human; details: 10 μM 2 hours, then IL-6 12 ng/ml 24 h
# Experimental: HUVECs were treated with vehicle, EPA, or AA (10 μM) for 2 hours, and then challenged with IL-6 (12 ng/ml) for 24 h hours. After incubation, cells were pelleted and frozen at −80° C. until proteomic analysis was performed. Cell pellets were lysed using methanol/chloroform extraction. Proteins were denatured, reduced, alkylated, and trypsin digested. Samples were then prepared for Tandem Mass Tag (TMT) 10plex labeling. A bicinchoninic acid (BCA) assay was performed on each sample to quantify the total protein in each sample, which is important to confirm equal amounts of each sample are added to the multiplex sample. Each peptide in a sample was given a unique, low molecular weight (typically 126-130 Da), and then the samples were combined. Relative protein expression levels among the various treatments were measured using LC/MS proteomic techniques. Following protein digest, peptides are separated over a reverse phase column and then identified based on their mass. Each multiplexed sample was then fractionated to increase the overall protein coverage using high pH reversed phase fractionation and analyzed by LC/MS using a Dionex UltiMate 3000 RSLC in tandem with a Q-Exactive/Lumos Orbitrap Mass Spectrometer. The chromatography was performed using a 2-hour gradient on a Thermo Pepmap C18 column (100 Å pore size, 3.0 μm particle size, […]×150 mm) set at 50° C. […]
# [4] = system: Human pulmonary ECs (PECs); test: Proteomic analysis (LC/MS) of pulmonary ECs treated with EPA and IL-6 for 24 hours; assay type: cell-based; details: EPA 40 μM + IL-6 12 ng/ml
# Experimental: (§1) Human pulmonary ECs (PECs) and umbilical vein ECs (HUVECs) were treated with vehicle or EPA (40/10 μM in PECs/HUVECs) and IL-6 (12 ng/ml) for 24 hours. Proteomic analysis was performed using liquid chromatography/mass spectroscopy. […] Human pulmonary ECs (PECs) and umbilical vein ECs (HUVECs) were treated with vehicle or EPA (40/10 μM in PECs/HUVECs) and IL-6 (12 ng/ml) for 24 hours. Proteomic analysis was performed using liquid chromatography/mass spectroscopy. […] NO release was measured in HUVECs using tandem porphyrinic nanosensors following stimulation with calcium.
# [5] = system: Human PECs; test: Fatty acid content of PECs by GC/MS; assay type: cell-based; details: PECs pretreated with EPA 40 μM, IL-6
# Experimental: Human PECs were pretreated with vehicle or EPA (40 μM) for 2 hours, then challenged with IL-6 at 12 ng/ml for 24 hours. Proteomic analysis was performed using LC/MS to capture relative expression levels. Only significant changes in protein expression between treatment groups >2-fold were analyzed. Levels of intercellular adhesion molecule-1 (ICAM-1) were measured by immunochemistry. EPA, docosahexaenoic acid (DHA), docosapentaenoic acid (DPA), palmitic acid (PA), linoleic acid (LA) and arachidonic acid (AA) content was measured by GC/MS.
# [6] = system: heme oxygenase-1 (HMOX-1); test: HMOX-1 expression relative to IL-6 in HUVECs (LC/MS proteomics); assay type: cell-based, human; details: 10 μM 2 hours, then IL-6 12 ng/ml 24 h
# Experimental: HUVECs were treated with vehicle, EPA, or DHA (10 μM) for 2 hours, and then challenged with IL-6 (12 ng/ml) for 24 h hours. After incubation, cells were pelleted and frozen at −80° C. until proteomic analysis was performed. Cell pellets were lysed using methanol/chloroform extraction. Proteins were denatured, reduced, alkylated, and trypsin digested. Samples were then prepared for Tandem Mass Tag (TMT) 10plex labeling. A bicinchoninic acid (BCA) assay was performed on each sample to quantify the total protein in each sample, which is important to confirm equal amounts of each sample are added to the multiplex sample. Each peptide in a sample was given a unique, low molecular weight (typically 126-130 Da), and then the samples were combined. Relative protein expression levels among the various treatments were measured using LC/MS proteomic techniques. Following protein digest, peptides are separated over a reverse phase column and then identified based on their mass.
# Each multiplexed sample was then fractionated to increase the overall protein coverage using high pH reversed phase fractionation and analyzed by LC/MS using a Dionex UltiMate 3000 RSLC in tandem with a Q-Exactive/Lumos Orbitrap Mass Spectrometer. The chromatography was performed using a 2-hour gradient on a Thermo Pepmap C18 column (100 Å pore size, 3.0 μm particle size, […]×150 mm) set at 50° C. […]
# [7] = system: umbilical vein ECs (HUVECs); test: Proteomic analysis (LC/MS) of HUVECs treated with EPA and IL-6 for 24 hours; assay type: cell-based, human; details: EPA 10 μM + IL-6 12 ng/ml
# Experimental: as §1
# [8] = system: Human pulmonary ECs; test: Proteomic analysis (LC/MS) of pulmonary ECs treated with EPA after IL-6 exposure; assay type: cell-based; details: IL-6 12 ng/ml 2 hours, then EPA 24 h
# Experimental: Human pulmonary ECs were treated with vehicle or EPA for 24 h after exposure to IL-6 at 12 ng/ml for 2 hours. Proteomic analysis was performed using liquid chromatography/mass spectroscopy to capture relative expression levels. Only significant changes in protein expression between treatment groups >1-fold with a p-value less than 0.05 were analyzed.
# [9] = Clinical study of human participants exposed to high-dose ethyl EPA; assay type: in vivo; details: high-dose exposure
# Text: Based on a clinical study of human participants, the inventors have discovered that exposure to a high-dose ethyl EPA (i.e., […]) is associated with fewer anemia AEs and higher hemoglobin and hematocrit. High-dose ethyl EPA exposure is also associated with higher levels of the heme derivative bilirubin, which is a potent antioxidant. […] Both biliverdin and bilirubin are potent antioxidants, but bilirubin is likely the stronger of the two. Bilirubin can be converted back into biliverdin rather than being eliminated, thus perpetuating both compounds' antioxidant effects.
molecule,measurement,setting,value
"CCCCC/C=C\C/C=C\C/C=C\C/C=C\CCCC(=O)O [AA, arachidonic acid, reference compound]",ONOO- Release,[1],194 ± 9 nM
"CC/C=C\C/C=C\C/C=C\C/C=C\C/C=C\C/C=C\CCC(=O)O [DHA, docosahexaenoic acid, reference compound]",NO Release,[2]; 10 μM 2 hours,404 ± 15 nM
"CC/C=C\C/C=C\C/C=C\C/C=C\C/C=C\CCCC(=O)O [EPA, eicosapentaenoic acid]","PECAM-1 Expression Relative to IL-6, Fold Change Increase",[3],1.22 fold
same,decrease in PECAM-1,[3],120%
same,Platelet endothelial cell adhesion molecule (PECAM) downregulation,[4],1.2 fold
same,amyloid-beta precursor protein decrease,[4],1.1 fold
same,heme-oxygenase-1 increase,[4],1.9 fold
same,integrin alpha-V decrease,[4],1.1 fold
same,thrombin receptor decrease,[4],1.3 fold
same,reduction of PA (palmitic acid) levels,[5],34%
same,"HMOX-1 Expression Relative to IL-6, Fold Change Increase",[6],1.58 fold
same,upregulation of inducible HMOX-1 compared to IL-6 alone,[6],160%
same,Platelet endothelial cell adhesion molecule (PECAM) downregulation,[7],1.2 fold
same,heme-oxygenase-1 increase,[7],1.6 fold
same,integrin alpha-V decrease,[7],1.5 fold
same,superoxide dismutase increase,[7],1.6 fold
same,increase of NO release compared to IL-6 alone,"[2]; 10 μM 2 hours, then IL-6 12 ng/ml 24 h (Example 5)",13%
same,NO Release,[2]; 10 μM 2 hours,421 ± 12 nM
same,increase of NO release relative to IL-6 alone,"[2]; EPA 10 μM and IL-6 12 ng/ml 24 hours, calcium stimulation (Example 2)",13%
same,ACE level reduction,[8],1.1 fold
same,ECE-1 level reduction,[8],1.3 fold
same,Hsp90 increase compared to IL-6,[8],1.1 fold
same,caveolin-1 downregulation compared to IL-6,[8],1.3 fold
same,decrease of ONOO— release relative to IL-6 alone,[1],17%
same,ONOO- Release,[1],181 ± 10 nM
"CC/C=C\C/C=C\C/C=C\C/C=C\C/C=C\CCCC(=O)OCC [ethyl EPA, eicosapentaenoic acid ethyl ester]",anemia AEs,[9],fewer
IL-6: cytokine interleukin-6 used to challenge endothelial cells (12 ng/ml) [reference compound],NO Release,[2]; 10 μM 2 hours,371 ± 14 nM
same,ONOO- Release,[1],217 ± 10 nM
